One test has as its target memapsin 2 (Homo sapiens, UniProt P56817). The test is described as follows: Inhibition of memapsin 2 beta-secretase activity toward fluorogenic substrate FS-2. The class given is biochemical. The note with it: pH 4, 37° C., 20 minutes pre-incubation, read-out: M2 Ki. The essentials: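 Enzyme pre-incubated with compound 20 min at pH 4, 37 °C, then fluorogenic substrate FS-2 added. Inhibition derived from rate of fluorescence increase from peptide hydrolysis.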

The target in the next test is Cathepsin D (Homo sapiens, UniProt P07339). The test is described as follows: Inhibition of cathepsin D activity (substrate peptide hydrolysis, MALDI-TOF). To be noted: pH 4.1, 37 degrees C., read-out: Cath D Ki. The class given is biochemical.
Cathepsin D, sequence (P07339 65-412, species assumed): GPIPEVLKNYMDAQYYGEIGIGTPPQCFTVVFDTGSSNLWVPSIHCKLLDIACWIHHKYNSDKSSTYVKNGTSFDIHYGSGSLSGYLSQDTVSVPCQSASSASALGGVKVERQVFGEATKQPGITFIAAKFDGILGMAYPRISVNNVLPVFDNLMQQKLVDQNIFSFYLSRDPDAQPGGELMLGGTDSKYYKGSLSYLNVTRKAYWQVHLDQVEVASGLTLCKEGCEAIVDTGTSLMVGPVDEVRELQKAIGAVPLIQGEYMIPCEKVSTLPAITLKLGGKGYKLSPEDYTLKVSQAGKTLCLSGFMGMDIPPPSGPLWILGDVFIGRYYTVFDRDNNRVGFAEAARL
For another test, the target named is T1, memapsin 1 (Homo sapiens, UniProt Q9Y5Z0).
T1 sequence (Q9Y5Z0 63-518): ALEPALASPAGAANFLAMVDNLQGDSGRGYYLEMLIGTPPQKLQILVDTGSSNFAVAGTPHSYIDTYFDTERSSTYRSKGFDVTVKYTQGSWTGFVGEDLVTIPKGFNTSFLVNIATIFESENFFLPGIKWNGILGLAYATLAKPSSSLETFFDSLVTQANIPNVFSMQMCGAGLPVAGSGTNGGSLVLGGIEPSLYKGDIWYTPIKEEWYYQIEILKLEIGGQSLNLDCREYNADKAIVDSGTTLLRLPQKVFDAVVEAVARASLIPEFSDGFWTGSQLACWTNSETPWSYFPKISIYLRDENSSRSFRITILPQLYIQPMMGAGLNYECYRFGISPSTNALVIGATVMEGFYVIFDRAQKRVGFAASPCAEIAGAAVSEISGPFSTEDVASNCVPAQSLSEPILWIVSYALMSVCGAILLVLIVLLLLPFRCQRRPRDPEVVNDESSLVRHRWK
The test is described as follows: Inhibition of memapsin 1 beta-secretase activity (substrate peptide hydrolysis, MALDI-TOF). The note with it: pH 4.1, 37 degrees C., read-out: M1 Ki. Type of test: biochemical.

Another test relates to Aβ production. Briefly: Cellular Aβ IC50 determination (Aβ40 sandwich ELISA). The class given is cell-based. To be noted: Cricetulus griseus, Chinese hamster ovary cells over-expressing human APP695 with London and Swedish mutations, 24 h. The procedure: The potency of compounds against memapsin 2 activity was determined in a cellular assay of Aβ production. […] Chinese hamster ovary cells that over-express human APP695 with the London and Swedish mutations were seeded in multi-well plates at 10% confluency. Compounds were dissolved in DMSO to concentrations near 1 mM, and diluted into culture media to a final concentration near 4 μM (final 0.4% DMSO). Compounds were diluted serially and applied to cells in multi-well plates 48 h after seeding. Incubation was continued in 5% CO2 at 37 degrees C. for 24 h. Aliquots were removed and assayed for Aβ40 content using a sandwich ELISA (BioSource International). Amount of Aβ40 over the range of concentration of compounds, relative to control incubations, were fit to a 4-parameter IC50 model.

memapsin 2, sequence (P56817 46-501): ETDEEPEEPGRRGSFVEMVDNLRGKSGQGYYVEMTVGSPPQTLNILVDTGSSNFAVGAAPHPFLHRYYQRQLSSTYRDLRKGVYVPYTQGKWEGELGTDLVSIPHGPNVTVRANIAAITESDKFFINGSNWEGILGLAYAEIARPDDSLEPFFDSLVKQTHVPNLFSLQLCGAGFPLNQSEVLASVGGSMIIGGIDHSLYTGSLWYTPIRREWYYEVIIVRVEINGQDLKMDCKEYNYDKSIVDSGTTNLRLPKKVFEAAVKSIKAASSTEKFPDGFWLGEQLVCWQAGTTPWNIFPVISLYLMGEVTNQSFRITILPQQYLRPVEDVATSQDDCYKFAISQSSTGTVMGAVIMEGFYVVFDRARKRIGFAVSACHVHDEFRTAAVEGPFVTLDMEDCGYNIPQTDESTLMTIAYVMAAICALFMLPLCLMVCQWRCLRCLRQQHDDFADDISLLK

The term Ki denotes a dissociation constant, usually derived from enzyme kinetics or from competition with a known ligand. Consider `COC(=O)N(C)c1cc(C(=O)NC(C)c2ccccc2)cc(C(=O)NC(CC(C)C)C(O)CC(C)C(=O)NC(C(=O)NCC(C)C)C(C)C)c1` (centres unmarked) [methyl 3-(5-hydroxy-8-(1-(isobutylamino)-3-methyl-1-oxobutan-2-ylamino)-2,7-dimethyl-8-oxooctan-4-ylcarbamoyl)-5-(1-phenylethylcarbamoyl)phenyl(methyl)carbamate], for which the inhibition constant (Ki) at memapsin 2 was 405 to 2000 nM; at Cathepsin D it was under 405 nM; on memapsin 1, under 405 nM.

As a reminder, the IC50 is the concentration that inhibits the measured activity by half. High values mean weaker potency, low ones greater potency. Take `CC(C)CNC(=O)C(NC(=O)C(C)CC(O)C(CC(C)C)NC(=O)c1cc(F)cc(C(=O)NC(C)c2ccccc2)c1)C(C)C` (centres unmarked) [5-fluoro-N1-(5-hydroxy-8-(1-(isobutylamino)-3-methyl-1-oxobutan-2-ylamino)-2,7-dimethyl-8-oxooctan-4-yl)-N3-(1-phenylethyl)isophthalamide]: the Ki was 405 to 2000 nM at memapsin 2, under 405 nM on Cathepsin D and under 405 nM at memapsin 1. The compound further gave an IC50 in the test with Aβ production of 10000 to 20000 nM.

With `CC(C)CC(NC(=O)c1cc(C(=O)NC(C)c2ccccc2)cc(N(C)S(C)(=O)=O)c1)C(O)CC(C)C(=O)NC(C)C` (centres unmarked) [N1-(5-hydroxy-8-(isopropylamino)-2,7-dimethyl-8-oxooctan-4-yl)-5-(N-methylmethylsulfonamido)-N3-(1-phenylethyl)isophthalamide], the Ki at memapsin 2 and at memapsin 1 was 405 to 2000 nM throughout. This compound came in with an IC50 in the test on Aβ production of over 20000 nM.

Turning to `CCCN(CCC)C(=O)c1cccc(C(=O)N[C@@H](CC(C)C)[C@@H](O)C[C@@H](C)C(=O)NC(C(=O)NCC(C)C)C(C)C)c1` (stereo in doubt) [N1-(5-hydroxy-8-(1-(isobutylamino)-3-methyl-1-oxobutan-2-ylamino)-2,7-dimethyl-8-oxooctan-4-yl)-N3,N3-dipropylisophthalamide], the Ki at memapsin 2, at Cathepsin D and at memapsin 1 was under 405 nM throughout.

Regarding `CC(C)CNC(=O)C(NC(=O)C(C)CC(O)C(CC(C)C)NC(=O)c1cc(C(=O)N(C)Cc2ccccn2)cc(N(C)S(C)(=O)=O)c1)C(C)C` (centres unmarked) [N1-(5-hydroxy-8-(1-(isobutylamino)-3-methyl-1-oxobutan-2-ylamino)-2,7-dimethyl-8-oxooctan-4-yl)-N3-methyl-5-(N-methylmethylsulfonamido)-N3-(pyridin-2-ylmethyl)isophthalamide], the Ki is under 405 nM at memapsin 2, under 405 nM on Cathepsin D and 405 to 2000 nM on memapsin 1. In addition, the IC50 with Aβ production was over 20000 nM.

In the case of `CCCN(CCC)C(=O)c1cccc(C(=O)NC(Cc2cc(F)cc(F)c2)C(O)CC(C)C(=O)NCC(C)C)c1` (centres unmarked) [N1-(1-(3,5-difluorophenyl)-3-hydroxy-6-(isobutylamino)-5-methyl-6-oxohexan-2-yl)-N3,N3-dipropylisophthalamide], the Ki on memapsin 2, on Cathepsin D and at memapsin 1 was under 405 nM in each case. The compound also yielded an IC50 with Aβ production of under 5000 nM.

As for `CC(C)CNC(=O)C(NC(=O)C(C)CC(O)C(CC(C)C)NC(=O)c1cc(C(=O)N(C)Cc2ccccc2)cc(N(C)S(C)(=O)=O)c1)C(C)C` (centres unmarked) [N1-benzyl-N3-(5-hydroxy-8-(1-(isobutylamino)-3-methyl-1-oxobutan-2-ylamino)-2,7-dimethyl-8-oxooctan-4-yl)-N1-methyl-5-(N-methylmethylsulfonamido)isophthalamide], the Ki on memapsin 2, at Cathepsin D and at memapsin 1 was under 405 nM in each case. Besides, in the test with Aβ production, the IC50 is 10000 to 20000 nM.

In the case of `CC(C)CC(NC(=O)c1cc(C(=O)NC(C)c2ccccc2)cc(N(C)S(C)(=O)=O)c1)C(O)CC(C)C(=O)NC(C(=O)NCc1ccccn1)C(C)C` (centres unmarked) [N1-(5-hydroxy-2,7-dimethyl-8-(3-methyl-1-oxo-1-(pyridin-2-ylmethylamino)butan-2-ylamino)-8-oxooctan-4-yl)-5-(N-methylmethylsulfonamido)-N3-(1-phenylethyl)isophthalamide], the Ki on memapsin 2, at Cathepsin D and at memapsin 1 was under 405 nM each time. In the test on Aβ production, this compound came in with an IC50 of under 5000 nM.

With `CC(C)CNC(=O)C(NC(=O)C(C)CC(O)C(CC(C)C)NC(=O)c1cncc(C(=O)N(C)Cc2ccccn2)c1)C(C)C` (centres unmarked) [N3-(5-hydroxy-8-(1-(isobutylamino)-3-methyl-1-oxobutan-2-ylamino)-2,7-dimethyl-8-oxooctan-4-yl)-N5-methyl-N5-(pyridin-2-ylmethyl)pyridine-3,5-dicarboxamide], the Ki at memapsin 2, at Cathepsin D and at memapsin 1 was under 405 nM throughout. In addition, in the test with Aβ production, the IC50 is over 20000 nM.

Regarding `CC(C)CC(NC(=O)c1cc(C(=O)NC(C)c2ccccc2)cc(N(C)S(C)(=O)=O)c1)C(O)CC(C)C(=O)NC(C)c1ccccc1` (centres unmarked) [N1-(5-hydroxy-2,7-dimethyl-8-oxo-8-(1-phenylethylamino)octan-4-yl)-5-(N-methylmethylsulfonamido)-N3-(1-phenylethyl)isophthalamide], the Ki on memapsin 2 is 405 to 2000 nM; on Cathepsin D, 2000 to 5000 nM; on memapsin 1, over 5000 nM. The IC50 with Aβ production fell in the range of 10000 to 20000 nM.

For the compound `CCN1CCCC1CNC(=O)C(NC(=O)C(C)CC(O)C(CC(C)C)NC(=O)c1cc(C(=O)NC(C)c2ccccc2)cc(N(C)S(C)(=O)=O)c1)C(C)C` (centres unmarked) [N1-(8-(1-((1-ethylpyrrolidin-2-yl)methylamino)-3-methyl-1-oxobutan-2-ylamino)-5-hydroxy-2,7-dimethyl-8-oxooctan-4-yl)-5-(N-methylmethylsulfonamido)-N3-(1-phenylethyl)isophthalamide], the Ki on memapsin 2, at Cathepsin D and at memapsin 1 was under 405 nM each time. In the test with Aβ production, this compound yielded an IC50 of under 5000 nM.

Consider `CC(=O)Nc1cc(C(=O)NC(C)c2ccccc2)cc(C(=O)NC(CC(C)C)C(O)CC(C)C(=O)NC(C(=O)NCC(C)C)C(C)C)c1` (centres unmarked) [5-acetamido-N1-(5-hydroxy-8-(1-(isobutylamino)-3-methyl-1-oxobutan-2-ylamino)-2,7-dimethyl-8-oxooctan-4-yl)-N3-(1-phenylethyl)isophthalamide], for which the Ki at memapsin 2, on Cathepsin D and at memapsin 1 was under 405 nM each time. Moreover, in the test with Aβ production, the IC50 was 5000 to 10000 nM.

As for `CCC(NC(=O)C(C)CC(O)C(CC(C)C)NC(=O)c1cc(C(=O)NC(C)c2ccccc2)cc(N(C)S(C)(=O)=O)c1)C(=O)NCC(C)C` (centres unmarked) [N1-(5-hydroxy-8-(1-(isobutylamino)-1-oxobutan-2-ylamino)-2,7-dimethyl-8-oxooctan-4-yl)-5-(N-methylmethylsulfonamido)-N3-(1-phenylethyl)isophthalamide], the Ki on memapsin 2, at Cathepsin D and at memapsin 1 was under 405 nM each time. For the same compound, the IC50 in the test on Aβ production was under 5000 nM.

On to `CCN(Cc1ccncc1)C(=O)c1cc(C)cc(C(=O)NC(CC(C)C)C(O)CC(C)C(=O)NC(C(=O)NCC(C)C)C(C)C)c1` (centres unmarked) [N1-ethyl-N3-(5-hydroxy-8-(1-(isobutylamino)-3-methyl-1-oxobutan-2-ylamino)-2,7-dimethyl-8-oxooctan-4-yl)-5-methyl-N1-(pyridin-4-ylmethyl)isophthalamide], for which the Ki on memapsin 2 is 405 to 2000 nM; on Cathepsin D, under 405 nM; at memapsin 1, under 405 nM. The IC50 in the test with Aβ production is over 20000 nM.

As to `Cc1nc(CN(C)C(=O)c2cccc(C(=O)NC(CC(C)C)C(O)CC(C)C(=O)NC(C(=O)NCC(C)C)C(C)C)c2)c(C)o1` (centres unmarked) [N1-((2,5-dimethyloxazol-4-yl)methyl)-N3-(5-hydroxy-8-(1-(isobutylamino)-3-methyl-1-oxobutan-2-ylamino)-2,7-dimethyl-8-oxooctan-4-yl)-N1-methylisophthalamide], the Ki at memapsin 2 is under 405 nM; at Cathepsin D, under 405 nM; at memapsin 1, 405 to 2000 nM.

Regarding `CC(C)CNC(=O)C(NC(=O)C(C)CC(O)C(CC(C)C)NC(=O)c1cccc(C(=O)N(C)Cc2nccn2C)c1)C(C)C` (centres unmarked) [N1-(5-hydroxy-8-(1-(isobutylamino)-3-methyl-1-oxobutan-2-ylamino)-2,7-dimethyl-8-oxooctan-4-yl)-N3-methyl-N3-((1-methyl-1H-imidazol-2-yl)methyl)isophthalamide], the Ki at memapsin 2 was over 5000 nM; on Cathepsin D, 2000 to 5000 nM; on memapsin 1 it was over 5000 nM.

In the case of `COc1ccc(C[C@H](NC(=O)c2cccc(C(=O)NCc3nc(C)cs3)c2)[C@@H](O)C[C@@H](C)C(=O)N[C@H](C(=O)NCC(C)C)C(C)C)cc1` [N1-(3-hydroxy-6-(1-(isobutylamino)-3-methyl-1-oxobutan-2-ylamino)-1-(4-methoxyphenyl)-5-methyl-6-oxohexan-2-yl)-N3-((4-methylthiazol-2-yl)methyl)isophthalamide], the Ki at memapsin 2 is 2000 to 5000 nM; on Cathepsin D, under 405 nM; on memapsin 1, 405 to 2000 nM.

The values above are taken from US20080207527A1, “Bicyclic Compounds Which Inhibit Beta-Secretase Activity and Methods of Use Thereof” (CoMentis, Inc., priority 2004, published 2008).
